The values below come from patent publication US12359188B2, “Method for producing therapeutic exosomes from nanoelectroporation and other non-endocytic cell transfection” (Ohio State Innovation Foundation, priority 2017, dated 2025).

The assay relates to NEP transfected MEF cells. Briefly: Effect of HSP70/HSP90 inhibitors on EV secretion from NEP transfected MEF cells (DLS goniometry). The conditions noted are these: medium collected 24 h post-transfection. It is filed as cell-based, mouse. Here is the method: After NEP transfection, the cell culture was replaced with fresh medium containing HSP70 inhibitor (VER 155008, 50 μM), HSP90 inhibitor (NVP-HSP990, 1 μM), or their mixture. Medium was collected at 24 h post-transfection, and EV numbers were detected by dynamic light scattering (DLS) goniometry;
During electroporation, Joule heating caused by the imposed electric field could tentatively increase the cell temperature to cause thermal shocking to the transfected cells. It is known that thermal shocking may increase cell secretion of EVs due to chaperone mediated autophage caused by the increase of heat shock proteins in cells (8-10). […] When HSP inhibitors were added in cell culture medium after electroporation, EV secretion could be suppressed. […] Here, the cell culture was replaced with fresh medium containing HSP70 inhibitor (VER 155008), HSP90 inhibitor (NVP-HSP990), or their mixture right after NEP transfection. Medium was collected at 24 h post-transfection and EV numbers were detected by dynamic light scattering (DLS) goniometry.

Regarding `COc1cccc(-c2cc(F)ccc2[C@H]2Cc3nc(N)nc(C)c3C(=O)N2)n1` [NVP-HSP990], where the note is “HSP90 inhibitor 1 μM in fresh medium right after NEP transfection”, the “decrease of EV secretion” value is given as 40%.

In the case of `N#Cc1ccc(COC[C@H]2O[C@@H](n3c(NCc4ccc(Cl)c(Cl)c4)nc4c(N)ncnc43)[C@H](O)[C@@H]2O)cc1` [VER 155008], where the note is “HSP70 inhibitor 50 μM in fresh medium right after NEP transfection”, the “decrease of EV secretion” value turned out to be 50%.
